Test results from publication PMC10035904, “Synthesis of novel sulphamethoxazole derivatives and exploration of their anticancer and antimicrobial properties” (PLOS ONE, 2023).

SMILES | melting point
Cc1cc(NS(=O)(=O)c2ccc(NCCC(=O)NN=Cc3ccc([N+](=O)[O-])cc3)cc2)no1 [Compound 15j, 4-((3-(2-(4-Nitrobenzylidene)hydrazineyl)-3-oxopropyl)amino)-N-(5-methylisoxazol-3-yl)benzene-sulfonamide] | 214 to 215 °C
Cc1cc(NS(=O)(=O)c2ccc(N3CCC(=O)NC3=S)cc2)no1 [Compound 6, N-(5-methylisoxazol-3-yl)-4-(4-oxo-2-thioxotetrahydropyrimidin-1(2H)-yl)benzenesulfonamide] | 240 to 241 °C
Cc1cc(NS(=O)(=O)c2ccc(NCCC(=O)NN=Cc3ccccc3O)cc2)no1 [Compound 15b, 4-((3-(2-(2-Hydroxybenzylidene)hydrazineyl)-3-oxopropyl)amino)-N-(5-methylisoxazol-3-yl)benzene-sulfonamide] | 193 to 194 °C
Cc1cc(NS(=O)(=O)c2ccc(NCCc3n[nH]c(=O)n3-c3ccccc3)cc2)no1 [Compound 12, N-(5-methylisoxazol-3-yl)-4-((2-(5-oxo-4-phenyl-4,5-dihydro-1H-1,2,4-triazol-3-yl)ethyl)amino)-benzenesulfonamide] | 188 to 189 °C
Cc1cc(NS(=O)(=O)c2ccc(NCCC(=O)NN=Cc3ccc(O)cc3)cc2)no1 [Compound 15c, 4-((3-(2-(4-Hydroxybenzylidene)hydrazineyl)-3-oxopropyl)amino)-N-(5-methylisoxazol-3-yl)benzene-sulfonamide] | 218 to 219 °C
Cc1cc(NS(=O)(=O)c2ccc(NCCC(=O)NN=Cc3cccc([N+](=O)[O-])c3)cc2)no1 [Compound 15h, 4-((3-(2-(3-Nitrobenzylidene)hydrazineyl)-3-oxopropyl)amino)-N-(5-methylisoxazol-3-yl)benzene-sulfonamide] | 208 to 209 °C
Cc1cc(NS(=O)(=O)c2ccc(NC=CC(=O)Nn3c(C)ccc3C)cc2)no1 [Compound 8, N-(2,5-dimethyl-1H-pyrrol-1-yl)-3-((4-(N-(5-methylisoxazol-3-yl)sulfamoyl)phenyl)amino)propenamide] | 118 to 119 °C
Cc1cc(NS(=O)(=O)c2ccc(NCCC(=O)NN=Cc3cccs3)cc2)no1 [Compound 16c, N-(5-methylisoxazol-3-yl)-4-((3-oxo-3-(2-(thiophen-2-ylmethylene)hydrazineyl)propyl)amino)-benzenesulfonamide] | 215 to 216 °C
Cc1cc(NS(=O)(=O)c2ccc(N(CCC(=O)O)C(N)=S)cc2)no1 [Compound 6a, 3-(1-(4-(N-(5-methylisoxazol-3-yl)sulfamoyl)phenyl)thioureido)propanoic acid] | 182 to 183 °C
Cc1cc(C)n(C(=O)CCNc2ccc(S(=O)(=O)Nc3cc(C)on3)cc2)n1 [Compound 9, 4-((3-(3,5-Dimethyl-1H-pyrazol-1-yl)-3-oxopropyl)amino)-N-(5-methylisoxazol-3-yl)benzenesulfonamide] | 144 to 145 °C
Cc1cc(NS(=O)(=O)c2ccc(NCCC(=O)NN=Cc3ccc(F)cc3)cc2)no1 [Compound 15d, 4-((3-(2-(4-Fluorobenzylidene)hydrazineyl)-3-oxopropyl)amino)-N-(5-methylisoxazol-3-yl)benzene-sulfonamide] | 213 to 214 °C
Cc1cc(NS(=O)(=O)c2ccc(NCCC(=O)O)cc2)no1 [Compound 2, 3-((4-(N-(5-methylisoxazol-3-yl)sulfamoyl)phenyl)amino)propanoic acid] | 188 to 189 °C
Cc1cc(NS(=O)(=O)c2ccc(NCCC(=O)NNC(=S)Nc3ccccc3)cc2)no1 [Compound 11, 2-(3-((4-(N-(5-methylisoxazol-3-yl)sulfamoyl)phenyl)amino)propanoyl)-N-phenylhydrazine-1-carbothioamide] | 183 to 184 °C
COC(=O)CCNc1ccc(S(=O)(=O)Nc2cc(C)on2)cc1 [Compound 3, Methyl 3-((4-(N-(5-methylisoxazol-3-yl)sulfamoyl)phenyl)amino)propanoate] | 148 to 149 °C
Cc1cc(NS(=O)(=O)c2ccc(NCCC(=O)NN=Cc3cc([N+](=O)[O-])ccc3Cl)cc2)no1 [Compound 15i, 4-((3-(2-(2-Chloro-5-nitrobenzylidene)hydrazineyl)-3-oxopropyl)amino)-N-(5-methylisoxazol-3-yl)benzenesulfonamide] | 210 to 211 °C
Cc1cc(NS(=O)(=O)c2ccc(NCCc3n[nH]c(=S)n3-c3ccccc3)cc2)no1 [Compound 13, N-(5-methylisoxazol-3-yl)-4-((2-(4-phenyl-5-thioxo-4,5-dihydro-1H-1,2,4-triazol-3-yl)ethyl)amino)-benzenesulfonamide] | 222 to 223 °C
COc1ccc(C=NNC(=O)CCNc2ccc(S(=O)(=O)Nc3cc(C)on3)cc2)cc1 [Compound 15g, 4-((3-(2-(4-Methoxybenzylidene)hydrazineyl)-3-oxopropyl)amino)-N-(5-methylisoxazol-3-yl)benzene-sulfonamide] | 206 to 207 °C
Cc1cc(NS(=O)(=O)c2ccc(NCCC(=O)NN=Cc3ccco3)cc2)no1 [Compound 16a, 4-((3-(2-(Furan-2-ylmethylene)hydrazineyl)-3-oxopropyl)amino)-N-(5-methylisoxazol-3-yl)benzene-sulfonamide] | 185 to 186 °C
Cc1cc(NS(=O)(=O)c2ccc(NC=CC(=O)Nc3ccc(S(N)(=O)=O)cc3)cc2)no1 [Compound 7, 3-((4-(N-(5-methylisoxazol-3-yl)sulfamoyl)phenyl)amino)-N-(4-sulfamoylphenyl)propenamide] | 213 to 214 °C
Cc1cc(NS(=O)(=O)c2ccc(NCCC(=O)NN=C3C(=O)Nc4ccccc43)cc2)no1 [Compound 14, N-(5-methylisoxazol-3-yl)-4-((3-oxo-3-(2-(2-oxoindolin-3-ylidene)hydrazineyl)propyl)amino)-benzenesulfonamide] | 209 to 210 °C
Cc1cc(NS(=O)(=O)c2ccc(NCCC(=O)NN=Cc3ccccc3)cc2)no1 [Compound 15a, 4-((3-(2-Benzylidenehydrazineyl)-3-oxopropyl)amino)-N-(5-methylisoxazol-3-yl)benzenesulfonamide] | 199 to 200 °C
Cc1cc(NS(=O)(=O)c2ccc(NCCC(=O)NNC(=O)Nc3ccccc3)cc2)no1 [Compound 10, 2-(3-((4-(N-(5-methylisoxazol-3-yl)sulfamoyl)phenyl)amino)propanoyl)-N-phenylhydrazine-1-carboxamide] | 204 to 205 °C
Cc1cc(NS(=O)(=O)c2ccc(NCCC(=O)NN=Cc3ccc(Cl)cc3)cc2)no1 [Compound 15f, 4-((3-(2-(4-Chlorobenzylidene)hydrazineyl)-3-oxopropyl)amino)-N-(5-methylisoxazol-3-yl)benzene-sulfonamide] | 210 to 211 °C
